Results: US9718803B2 (AMGEN INC., priority 2010, dated 2017)
pIC50: −log10 of the molar value. Read-outs that look alike come from different tables or passages of the source.

Target: PDE10 enzyme
Experiment: MPDE10A7 enzyme activity and inhibition (IMAP TR-FRET assay)
Type: biochemical
Procedure: MPDE10A7 Enzyme Activity and Inhibition
Enzyme Activity. An IMAP TR-FRET assay was used to analyze the enzyme activity (Molecular Devices Corp., Sunnyvale Calif.). 5 L of serial diluted PDE10A (BPS Bioscience, San Diego, Calif.) or tissue homogenate was incubated with equal volumes of diluted fluorescein labeled cAMP or cGMP for 60 min in 384-well polystyrene assay plates (Corning, Corning, N.Y.) at room temperature. After incubation, the reaction was stopped by adding 60 L of diluted binding reagents and was incubated for 3 hours to overnight at room temperature. The plates were read on an Envision (Perkin Elmer, Waltham, Mass.) for time resolved fluorescence resonance energy transfer. The data were analyzed with GraphPad Prism (La Jolla, Calif.).
Enzyme Inhibition. To check the inhibition profile, 5 μL of serial diluted compounds were incubated with 5 μL of diluted PDE10 enzyme (BPS Bioscience, San Diego, Calif.) or tissue homogenate in a 384-well polystyrene assay plate (Corning, Corning, N.Y.) for 30 min at room temperature. […] The reaction was stopped by adding 60 μL of diluted binding reagents and plates were read on an Envision (Perkin Elmer, Waltham, Mass.) for time resolved fluorescence resonance energy transfer. The data were analyzed with GraphPad Prism (La Jolla, Calif.).

Structure (SMILES) | pIC50 (read-out: IC50) | pIC50 (running text of examples, fluorescein labeled cAMP or cGMP substrate, read-out: PDE10 IC50)
N#Cc1ccc(-c2nccnc2C2CN(c3ccc4ccccc4n3)C2)cc1 [Example 5.8, 4-(3-(1-(quinolin-2-yl)azetidin-3-yl)pyrazin-2-yl)benzonitrile] | 8.52 | 
O=C(O)c1cccc(-c2nccnc2C2CN(c3ccc4ccccc4n3)C2)c1 [Example 33.1, Lithium 3-(3-(1-(Quinolin-2-Yl)Azetidin-3-Yl)Pyrazin-2-Yl)Benzoate] |  | 8.80
